Results from US9018241B2, “Hetero-substituted acetanilide derivatives as analgesic agents” (Janssen Pharmaceutica N.V., priority 2003, dated 2015).

Assays:
[1] = system: acetylcholine-induced abdominal constriction in mice; assay: Mouse Abdominal Irritant Test (MAIT); assay type: in vivo; settings: 300 mg/kg oral, male CD1 mice, % Inhibition=100×(Number of Nonresponders)/(Number of Animals in Group), read-out: Effect @ 300 mg/kg (Antinociceptive Effect in Mouse Abdominal Irritant Test)
Procedure: Male CD1 mice (weighing from 18-24 g) are used to determine the antinociceptive effects associated with the compositions of the invention. The mice are all dosed orally with the compounds specified, dissolved in distilled water or suspended in 0.5% MethocelTM (hydroxypropyl methylcellulose) in water. The dosing volume is 10 mL/kg.
The procedure used in detecting and comparing the analgesic activity of different classes of analgesic drugs for which there is a good correlation with human efficacy is the prevention of acetylcholine-induced abdominal constriction in mice (H. Collier et al., Br. J. Pharmacol., 32, 295 (1968)).
Mice, intubated with various doses of the compound or vehicle such as distilled water, or distilled water 0.5% Methocel™ (hydroxypropyl methylcellulose) in water, are injected intraperitoneally with a challenge dose of acetylcholine bromide. The acetylcholine is completely dissolved in distilled water at a concentration of […] and injected at the rate of 0.20 mL/20 g. For scoring purposes, an “abdominal constriction” is defined as a contraction of the abdominal musculature accompanied by arching of the back and extension of the limbs. The mice are observed for 10 minutes for the presence or absence of the abdominal constriction response beginning immediately after receiving the acetylcholine dose, administered at a certain time after the oral administration of the test drug or vehicle. Each mouse is used only once.
The percent of inhibition of this response is calculated as follows: % Inhibition=100×(Number of Nonresponders)/(Number of Animals in Group)

[2] = system: rectal temperature of rats injected with yeast suspension; assay: Antipyretic evaluation in yeast-injected rats; assay type: in vivo
Procedure: Groups of 10 male rats are weighed, color-coded, rectal temperatures taken (24 hours±15 minutes prior to dose administration) and recorded. Food is removed but water remains available ad libitum. Each rat is injected subcutaneously into the central dorsal region with 5 ml of a 15% yeast suspension. Twenty-three hours (±15 minutes) after yeast injection, body weights and rectal temperatures are taken and recorded. Twenty-four hours (±15 minutes) after yeast injection, the vehicle and test articles are administered orally. Temperatures are taken and recorded one hour (±5 minutes) following test article or vehicle administration. The mean rectal temperatures for the test article and vehicle control groups are calculated at 23 and 25 hours (±15 minutes) and subjected to an ANOVA followed by a Tukey HSD Multiple Comparison Test (p≦0.05)—Systat, version 9.0.

SMILES | responders at 300 mg/kg [1] [%] | decrease in body temperature relative to the vehicle-treated group ([2]; 600 mg/kg oral, ANOVA, Tukey HSD) | Antipyresis deg C. @ 600 mpk ([2]; 600 mpk oral, one hour after administration, 24 h after yeast injection) [deg C.]
O=C(Nc1ccc(O)cc1)c1ccc[nH]1 [1H-Pyrrole-2-carboxylic acid (4-hydroxy-phenyl)-amide] | 86.7 |  | 
O=C(Nc1ccc(O)cc1)[C@@H]1CCCN1 [(S)-Pyrrolidine-2-carboxylic acid (4-hydroxy-phenyl)-amide] | 40 |  | 
O=C(CS)Nc1ccc(O)cc1 [N-(4-Hydroxy-phenyl)-2-mercapto-acetamide] | 40 |  | 
O=C(Nc1ccc(O)cc1)c1n[nH]c2ccccc12 [1H-Indazole-3-carboxylic acid (4-hydroxy-phenyl)-amide] | 20 |  | 
CSCC(=O)Nc1ccc(O)cc1 [N-(4-Hydroxy-phenyl)-2-methylsulfanyl-acetamide] | 45 |  | 
O=C(Nc1ccc(O)cc1)c1ccccn1 [Pyridine-2-carboxylic acid (4-hydroxy-phenyl)-amide] | 60 | statistically significant (p≦1.05) decrease in body temperature | −2.17
O=C(Nc1ccc(O)cc1)[C@H]1CCCN1 [(R)-Pyrrolidine-2-carboxylic acid (4-hydroxy-phenyl)-amide] | 20 |  | 
Cc1cc(C(=O)Nc2ccc(O)cc2)n[nH]1 [5-Methyl-1H-pyrazole-3-carboxylic acid (4-hydroxy-phenyl)-amide] | 73.3 |  | 
CS(=O)(=O)CC(=O)Nc1ccc(O)cc1 [N-(4-Hydroxy-phenyl)-2-methanesulfonyl-acetamide] | 40 |  | 
